What was measured:
[1] = target: T1, Sodium-dependent dopamine transporter (Rattus norvegicus, UniProt P23977); assay: Inhibitory binding activity against rat striatal tissue using [3H][…] as the radioligand.; format: tissue-based, Striatum
[2] = target: Sodium-dependent dopamine transporter (Rattus norvegicus) (UniProt P23977); assay: Discrimination ratio of compound is the ratio of inhibitory activity against [3H]dopamine uptake over [3H][…] binding
[3] = target: T1, Sodium-dependent dopamine transporter; assay: Inhibition of dopamine uptake into rat striatal tissue, using [3H]- dopamine as the radioligand.; format: tissue-based, Striatum

T1 sequence (P23977 whole entry): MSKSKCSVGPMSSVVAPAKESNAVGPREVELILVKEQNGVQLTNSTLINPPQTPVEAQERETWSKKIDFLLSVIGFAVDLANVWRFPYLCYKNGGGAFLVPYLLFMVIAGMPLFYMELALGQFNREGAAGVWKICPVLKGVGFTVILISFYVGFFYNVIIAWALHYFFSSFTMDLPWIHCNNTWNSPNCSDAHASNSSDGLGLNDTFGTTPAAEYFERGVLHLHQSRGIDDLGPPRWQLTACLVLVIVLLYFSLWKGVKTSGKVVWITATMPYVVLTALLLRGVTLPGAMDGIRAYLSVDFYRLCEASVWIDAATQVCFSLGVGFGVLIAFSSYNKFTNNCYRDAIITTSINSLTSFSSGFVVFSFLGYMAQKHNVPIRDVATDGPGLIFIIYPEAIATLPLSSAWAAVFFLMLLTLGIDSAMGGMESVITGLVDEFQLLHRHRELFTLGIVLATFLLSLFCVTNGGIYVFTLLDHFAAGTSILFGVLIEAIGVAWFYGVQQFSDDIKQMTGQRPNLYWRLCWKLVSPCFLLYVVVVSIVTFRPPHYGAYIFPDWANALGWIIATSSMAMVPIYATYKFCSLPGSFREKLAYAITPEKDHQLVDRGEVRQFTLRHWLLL
Chain of Sodium-dependent dopamine transporter (Rattus norvegicus) (P23977 whole entry): as above

Row | Compound | IC50 [1] | Discrimination ratio [2] | IC50 [3]
1 | COc1ccc(C2C3CCC(CC3)C2CN(C)C)cc1 (stereo not given) | 380 nM | 3.8 | 1430 nM
2 | COc1ccc(C2C3CCC(CC3)C2CN)cc1 (stereo not given) | 249 nM | 6 | 1500 nM
3 | NCC1C2CCC(CC2)C1c1ccc(N)cc1 (stereo not given) | 160 nM | 4.4 | 704 nM
4 | NCC1C2CCC(CC2)C1c1ccccc1 (stereo in doubt; 5a) [listing 1 of 2 here] | 1200 nM |  | 5930 nM
5 | NCC1C2CCC(CC2)C1c1ccccc1 (stereo in doubt; 5a) [listing 2 of 2 here] |  | 5 | 
6 | NCC1C2CCC(CC2)C1c1cccc(Cl)c1 (stereo in doubt; 5b) [listing 1 of 2 here] | 204 nM |  | 960 nM
7 | NCC1C2CCC(CC2)C1c1cccc(Cl)c1 (stereo in doubt; 5b) [listing 2 of 2 here] |  | 4.7 | 
8 | NCC1C2CCC(CC2)C1c1ccc(Cl)cc1 (stereo in doubt; 5c) [listing 1 of 2 here] | 71.4 nM |  | 375 nM
9 | NCC1C2CCC(CC2)C1c1ccc(Cl)cc1 (stereo in doubt; 5c) [listing 2 of 2 here] |  | 5.2 | 
10 | NCC1C2CCC(CC2)C1c1ccc(Cl)c(Cl)c1 (stereo in doubt; 5d) [listing 1 of 2 here] | 37.5 nM |  | 97.5 nM
11 | NCC1C2CCC(CC2)C1c1ccc(Cl)c(Cl)c1 (stereo in doubt; 5d) [listing 2 of 2 here] |  | 2.6 | 
12 | CN(C)CC1C2CCC(CC2)C1c1ccccc1 (stereo in doubt; 6a) [listing 1 of 2 here] | 191 nM |  | 840 nM
13 | CN(C)CC1C2CCC(CC2)C1c1ccccc1 (stereo in doubt; 6a) [listing 2 of 2 here] |  | 4.4 | 
14 | CN(C)CC1C2CCC(CC2)C1c1cccc(Cl)c1 (stereo in doubt; 6b) [listing 1 of 2 here] | 36.8 nM |  | 186 nM
15 | CN(C)CC1C2CCC(CC2)C1c1cccc(Cl)c1 (stereo in doubt; 6b) [listing 2 of 2 here] |  | 5.1 | 
16 | CN(C)CC1C2CCC(CC2)C1c1ccc(Cl)c(Cl)c1 (stereo in doubt; 6d) [listing 1 of 2 here] | 21.3 nM |  | 56.3 nM
17 | CN(C)CC1C2CCC(CC2)C1c1ccc(Cl)c(Cl)c1 (stereo in doubt; 6d) [listing 2 of 2 here] |  | 2.6 | 
18 | NCC1C2CCC(CC2)C1c1ccccc1 (stereo in doubt; 7a) [listing 1 of 2 here] | 270 nM |  | 1480 nM
19 | NCC1C2CCC(CC2)C1c1ccccc1 (stereo in doubt; 7a) [listing 2 of 2 here] |  | 5.5 | 
20 | NCC1C2CCC(CC2)C1c1cccc(Cl)c1 (stereo in doubt; 7b) [listing 1 of 2 here] | 117 nM |  | 430 nM
21 | NCC1C2CCC(CC2)C1c1cccc(Cl)c1 (stereo in doubt; 7b) [listing 2 of 2 here] |  | 3.7 | 
22 | NCC1C2CCC(CC2)C1c1ccc(Cl)cc1 (stereo in doubt; 7c) [listing 1 of 2 here] | 12.9 nM |  | 68.3 nM
23 | NCC1C2CCC(CC2)C1c1ccc(Cl)cc1 (stereo in doubt; 7c) [listing 2 of 2 here] |  | 5.3 | 
24 | NCC1C2CCC(CC2)C1c1ccc(Cl)c(Cl)c1 (stereo in doubt; 7d) [listing 1 of 2 here] | 21.5 nM |  | 34 nM
25 | NCC1C2CCC(CC2)C1c1ccc(Cl)c(Cl)c1 (stereo in doubt; 7d) [listing 2 of 2 here] |  | 1.6 | 
26 | CN(C)CC1C2CCC(CC2)C1c1ccccc1 (stereo in doubt; 8a) [listing 1 of 2 here] | 313 nM |  | 980 nM

Row | Compound | IC50 [1] | Discrimination ratio [2] | IC50 [3]
27 | CN(C)CC1C2CCC(CC2)C1c1ccccc1 (stereo in doubt; 8a) [listing 2 of 2 here] |  | 3.1 | 
28 | CN(C)CC1C2CCC(CC2)C1c1cccc(Cl)c1 (stereo in doubt; 8b) [listing 1 of 2 here] | 86 nM |  | 283 nM
29 | CN(C)CC1C2CCC(CC2)C1c1cccc(Cl)c1 (stereo in doubt; 8b) [listing 2 of 2 here] |  | 3.3 | 
30 | CN(C)CC1C2CCC(CC2)C1c1ccc(Cl)c(Cl)c1 (stereo in doubt; 8d) [listing 1 of 2 here] | 14.2 nM |  | 29.3 nM
31 | CN(C)CC1C2CCC(CC2)C1c1ccc(Cl)c(Cl)c1 (stereo in doubt; 8d) [listing 2 of 2 here] |  | 2.1 | 
32 | NCC1C2CCC(C2)C1c1ccccc1 (stereo in doubt; 9a) [listing 1 of 2 here] | 340 nM |  | 2220 nM
33 | NCC1C2CCC(C2)C1c1ccccc1 (stereo in doubt; 9a) [listing 2 of 2 here] |  | 6.5 | 
34 | NCC1C2CCC(C2)C1c1cccc(Cl)c1 (stereo in doubt; 9b) [listing 1 of 2 here] | 149 nM |  | 758 nM
35 | NCC1C2CCC(C2)C1c1cccc(Cl)c1 (stereo in doubt; 9b) [listing 2 of 2 here] |  | 5.1 | 
36 | NCC1C2CCC(C2)C1c1ccc(Cl)cc1 (stereo in doubt; 9c) [listing 1 of 2 here] | 46 nM |  | 230 nM
37 | NCC1C2CCC(C2)C1c1ccc(Cl)cc1 (stereo in doubt; 9c) [listing 2 of 2 here] |  | 5 | 
38 | NCC1C2CCC(C2)C1c1ccc(Cl)c(Cl)c1 (stereo in doubt; 9d) [listing 1 of 2 here] | 11.6 nM |  | 58 nM
39 | NCC1C2CCC(C2)C1c1ccc(Cl)c(Cl)c1 (stereo in doubt; 9d) [listing 2 of 2 here] |  | 5 | 
40 | COc1ccccc1C1C2CCC(C2)C1CN (stereo in doubt; 9e) [listing 1 of 2 here] | 11600 nM |  | 36600 nM
41 | COc1ccccc1C1C2CCC(C2)C1CN (stereo in doubt; 9e) [listing 2 of 2 here] |  | 3.1 | 
42 | COc1cccc(C2C3CCC(C3)C2CN)c1 (stereo in doubt; 9f) [listing 1 of 2 here] | 8820 nM |  | 29300 nM
43 | COc1cccc(C2C3CCC(C3)C2CN)c1 (stereo in doubt; 9f) [listing 2 of 2 here] |  | 3.3 | 
44 | COc1ccc(C2C3CCC(C3)C2CN)cc1 (stereo in doubt; 9g) [listing 1 of 2 here] | 1160 nM |  | 5550 nM
45 | COc1ccc(C2C3CCC(C3)C2CN)cc1 (stereo in doubt; 9g) [listing 2 of 2 here] |  | 4.8 | 
46 | CN(C)CC1C2CCC(C2)C1c1ccccc1 (stereo in doubt; 10a) [listing 1 of 2 here] | 515 nM |  | 1100 nM
47 | CN(C)CC1C2CCC(C2)C1c1ccccc1 (stereo in doubt; 10a) [listing 2 of 2 here] |  | 2.1 | 
48 | NCC1C2CCC(C2)C1c1ccccc1 (stereo in doubt; 11a) [listing 1 of 2 here] | 2900 nM |  | 8850 nM
49 | NCC1C2CCC(C2)C1c1ccccc1 (stereo in doubt; 11a) [listing 2 of 2 here] |  | 3.1 | 
50 | NCC1C2CCC(C2)C1c1cccc(Cl)c1 (stereo in doubt; 11b) [listing 1 of 2 here] | 239 nM |  | 780 nM
51 | NCC1C2CCC(C2)C1c1cccc(Cl)c1 (stereo in doubt; 11b) [listing 2 of 2 here] |  | 3.3 | 
52 | NCC1C2CCC(C2)C1c1ccc(Cl)cc1 (stereo in doubt; 11c) [listing 1 of 2 here] | 207 nM |  | 593 nM

Row | Compound | IC50 [1] | Discrimination ratio [2] | IC50 [3]
53 | NCC1C2CCC(C2)C1c1ccc(Cl)cc1 (stereo in doubt; 11c) [listing 2 of 2 here] |  | 2.9 | 
54 | NCC1C2CCC(C2)C1c1ccc(Cl)c(Cl)c1 (stereo in doubt; 11d) [listing 1 of 2 here] | 32.7 nM |  | 93.6 nM
55 | NCC1C2CCC(C2)C1c1ccc(Cl)c(Cl)c1 (stereo in doubt; 11d) [listing 2 of 2 here] |  | 2.9 | 
56 | COc1ccccc1C1C2CCC(C2)C1CN (stereo in doubt; 11e) [listing 1 of 2 here] | 1480 nM |  | 7860 nM
57 | COc1ccccc1C1C2CCC(C2)C1CN (stereo in doubt; 11e) [listing 2 of 2 here] |  | 5.3 | 
58 | COc1cccc(C2C3CCC(C3)C2CN)c1 (stereo in doubt; 11f) [listing 1 of 2 here] | 2010 nM |  | 6560 nM
59 | COc1cccc(C2C3CCC(C3)C2CN)c1 (stereo in doubt; 11f) [listing 2 of 2 here] |  | 3.3 | 
60 | COc1ccc(C2C3CCC(C3)C2CN)cc1 (stereo in doubt; 11g) [listing 1 of 2 here] | 1700 nM |  | 7120 nM
61 | COc1ccc(C2C3CCC(C3)C2CN)cc1 (stereo in doubt; 11g) [listing 2 of 2 here] |  | 4.2 | 
62 | CN(C)CC1C2CCC(C2)C1c1ccccc1 (stereo in doubt; 12a) [listing 1 of 2 here] | 2510 nM |  | 4330 nM
63 | CN(C)CC1C2CCC(C2)C1c1ccccc1 (stereo in doubt; 12a) [listing 2 of 2 here] |  | 1.7 | 
64 | NCC1C2CCC(C2)C1c1ccccc1 (stereo in doubt; 13a) [listing 1 of 2 here] | 816 nM |  | 3500 nM
65 | NCC1C2CCC(C2)C1c1ccccc1 (stereo in doubt; 13a) [listing 2 of 2 here] |  | 4.3 | 
66 | NCC1C2CCC(C2)C1c1ccc(Cl)cc1 (stereo in doubt; 13c) [listing 1 of 2 here] | 65.3 nM |  | 348 nM
67 | NCC1C2CCC(C2)C1c1ccc(Cl)cc1 (stereo in doubt; 13c) [listing 2 of 2 here] |  | 5.3 | 
68 | NCC1C2CCC(C2)C1c1ccc(Cl)c(Cl)c1 (stereo in doubt; 13d) [listing 1 of 2 here] | 21.3 nM |  | 98.7 nM
69 | NCC1C2CCC(C2)C1c1ccc(Cl)c(Cl)c1 (stereo in doubt; 13d) [listing 2 of 2 here] |  | 4.6 | 
70 | COc1ccc(C2C3CCC(C3)C2CN)cc1 (stereo in doubt; 13g) [listing 1 of 2 here] | 495 nM |  | 2260 nM
71 | COc1ccc(C2C3CCC(C3)C2CN)cc1 (stereo in doubt; 13g) [listing 2 of 2 here] |  | 4.6 | 
72 | CN(C)CC1C2CCC(C2)C1c1ccccc1 (stereo in doubt; 14a) [listing 1 of 2 here] | 2140 nM |  | 2750 nM
73 | CN(C)CC1C2CCC(C2)C1c1ccccc1 (stereo in doubt; 14a) [listing 2 of 2 here] |  | 1.3 | 
74 | NCC1C2CCC(C2)C1c1ccccc1 (stereo in doubt; 15a) [listing 1 of 2 here] | 251 nM |  | 875 nM
75 | NCC1C2CCC(C2)C1c1ccccc1 (stereo in doubt; 15a) [listing 2 of 2 here] |  | 3.5 | 
76 | NCC1C2CCC(C2)C1c1ccc(Cl)cc1 (stereo in doubt; 15c) [listing 1 of 2 here] | 7.7 nM |  | 34.9 nM
77 | NCC1C2CCC(C2)C1c1ccc(Cl)cc1 (stereo in doubt; 15c) [listing 2 of 2 here] |  | 4.5 | 
